ChEMBL document CHEMBL2074448, “Transport of anthelmintic benzimidazole drugs by breast cancer resistance protein (BCRP/ABCG2)” (Drug Metab Dispos, 2005)

Columns and labels:
Format in all cases: functional, cell-based
Details in all cases: dog, mdck-ii
[1] = biological target: T1, Broad substrate specificity ATP-binding cassette transporter ABCG2 (Mus musculus, UniProt Q7TMS5); assay: TP_TRANSPORTER: transepithelial transport of PhIP (basal to apical) in Bcrp1-expressing MDCKII cells
T1 sequence (Q7TMS5 whole entry): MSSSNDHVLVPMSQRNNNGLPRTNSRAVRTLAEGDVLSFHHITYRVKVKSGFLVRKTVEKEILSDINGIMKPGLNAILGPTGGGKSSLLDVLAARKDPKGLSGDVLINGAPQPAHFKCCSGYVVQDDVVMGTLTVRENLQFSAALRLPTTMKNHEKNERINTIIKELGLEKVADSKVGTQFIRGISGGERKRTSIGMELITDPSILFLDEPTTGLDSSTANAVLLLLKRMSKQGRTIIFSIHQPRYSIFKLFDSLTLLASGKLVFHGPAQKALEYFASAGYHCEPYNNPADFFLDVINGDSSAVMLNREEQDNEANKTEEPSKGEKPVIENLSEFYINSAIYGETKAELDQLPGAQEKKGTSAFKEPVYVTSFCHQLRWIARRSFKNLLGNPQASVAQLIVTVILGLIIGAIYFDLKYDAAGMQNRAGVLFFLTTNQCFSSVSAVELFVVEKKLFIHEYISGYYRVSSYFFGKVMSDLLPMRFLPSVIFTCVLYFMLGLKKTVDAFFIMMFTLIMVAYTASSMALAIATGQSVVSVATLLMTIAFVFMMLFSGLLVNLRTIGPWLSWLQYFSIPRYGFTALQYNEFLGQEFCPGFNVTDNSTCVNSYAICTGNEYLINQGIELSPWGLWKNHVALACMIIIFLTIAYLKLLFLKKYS

[2] = biological target: T1, Broad substrate specificity ATP-binding cassette transporter ABCG2; assay: TP_TRANSPORTER: transepithelial transport (basal to apical) in Bcrp1-expressing MDCKII cells
[3] = biological target: T2, Broad substrate specificity ATP-binding cassette transporter ABCG2 (Homo sapiens, UniProt Q9UNQ0); assay: TP_TRANSPORTER: transepithelial transport of PhIP (basal to apical) in BCRP-expressing MDCKII cells
T2 sequence (Q9UNQ0 whole entry): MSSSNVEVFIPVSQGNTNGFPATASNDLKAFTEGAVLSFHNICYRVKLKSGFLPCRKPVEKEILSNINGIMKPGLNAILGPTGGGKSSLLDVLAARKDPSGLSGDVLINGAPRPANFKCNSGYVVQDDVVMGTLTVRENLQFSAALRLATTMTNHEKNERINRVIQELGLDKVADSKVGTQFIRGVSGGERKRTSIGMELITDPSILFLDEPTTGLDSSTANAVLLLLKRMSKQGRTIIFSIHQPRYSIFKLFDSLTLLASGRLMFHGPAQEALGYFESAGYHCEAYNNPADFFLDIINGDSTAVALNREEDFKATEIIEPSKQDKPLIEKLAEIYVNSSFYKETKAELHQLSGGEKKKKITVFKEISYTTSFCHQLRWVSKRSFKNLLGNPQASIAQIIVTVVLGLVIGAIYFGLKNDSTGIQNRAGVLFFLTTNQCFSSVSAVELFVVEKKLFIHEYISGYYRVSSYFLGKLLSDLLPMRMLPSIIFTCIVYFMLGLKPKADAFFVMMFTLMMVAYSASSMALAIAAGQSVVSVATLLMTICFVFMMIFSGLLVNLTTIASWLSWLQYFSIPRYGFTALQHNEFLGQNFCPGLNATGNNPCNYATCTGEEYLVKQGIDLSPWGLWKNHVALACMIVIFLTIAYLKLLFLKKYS

[4] = biological target: T2, Broad substrate specificity ATP-binding cassette transporter ABCG2; assay: TP_TRANSPORTER: transepithelial transport (basal to apical) in BCRP-expressing MDCKII cells

Activity [2]	Activity [3]	Activity [4]	Compound	Activity [1]
substrate []	inhibitor []		COC(=O)Nc1nc2ccc([S+]([O-])c3ccccc3)cc2[nH]1 (stereo unspecified) [OXFENDAZOLE]	inhibitor []
			COc1ccc2c3c([nH]c2c1)[C@H](CC(C)C)N1C(=O)[C@H](CCC(=O)OC(C)(C)C)NC(=O)[C@@H]1C3	inhibitor []
substrate []		substrate []	CCC[S+]([O-])c1ccc2[nH]c(NC(=O)OC)nc2c1 (stereo unspecified) [ALBENDAZOLE OXIDE]	
